Assay [1] has as its target T1, recombinant GSTP1 lysates (Homo sapiens, UniProt P09211).
T1 construct: FLAG (C); host or cells: HEK293T, transient transfection; soluble proteome used unpurified
In words: GSTP1 biochemical substrate assay (GSH conjugation to BDNB). The note with it: negative control probes; highest concentration tested 100 μM. How it is done:
GSTP1 Biochemical Substrate Assay
Recombinant GSTP1-HEK293T soluble cell proteomes were diluted to 1 mg ml^−1 in assay buffer (100 mM NaH2PO4, pH 7.0). Samples were treated with inhibitor at indicated concentrations for 30 min at 37° C. GSH stock solution (250 mM in water) was diluted to 4 mM in assay buffer and 25 μl of diluted GSH solution was added to each sample. A substrate stock solution of 75 mM 1-bromo-2,4-dinitrobenzene […] in ethanol was diluted to 2 mM in assay buffer. Samples (25 μl) were aliquoted into a 96-well plate and spun briefly via centrifuge. Next, 50 μl of 2 mM BDNB was added to each well and the reaction was monitored in kinetic mode by measuring absorbance at 340 nm for 10 min on a BMG Labtech CLARIOstar plate reader (BMG Labtech, Cary, North Carolina, United States of America).

A further assay deals with A549 cells. The experiment in a line: Chemical phosphoproteomics of pervanadate-activated cells by SuTEx probe labeling (SILAC). Format: cell-based, human. The following applies: pervanadate 100 μM, 30 min, HHS-475 100 μM. How it is done:
Pervanadate (100 mM) was prepared as previously described^41 by mixing 100 μL of sodium orthovanadate (100 mM Na3VO4, New England BioLabs #P0758S, Ipswich, Massachusetts, United States of America) with 1 μL of hydrogen peroxide (H2O2, 30% v/v in water) on ice. […] After pervanadate treatment, cells were washed twice with cold PBS followed by harvest. Cell pellets were resuspended in PBS supplemented with protease and phosphatase inhibitor mini tablets (Thermo Scientific #A32959; ThermoFisher Scientific, Waltham, Massachusetts, United States of America) and then lysed by sonication (3×1 sec pulse, 20% amplitude). For CTNND1 western blot studies, cell pellets were lysed in NP40 Cell Lysis Buffer (#FNN0021, Invitrogen, Carlsbad, California, United States of America) supplemented with protease/phosphatase inhibitor tablets. Cell lysates were separated via centrifugation at 100,000×g for 45 min at 4° C. for western blot or chemical proteomic studies. Note: pervanadate treatments are performed on live cells but SuTEx probe labeling occurs in proteomes in vitro.
Proteomes from cells treated with pervanadate activation conditions (100 μM, 30 min) were labeled with HHS-475 or HHS-482 (100 μM, 30 min) followed by CuAAC with desthiobiotin and quantitative LC-MS to evaluate how phosphorylation status affected SuTEx probe labeling. […] In total ˜2,200 probe-modified tyrosine sites were detected across ˜1,000 proteins using both HHS-475 and HHS-482 that were further separated into pervanadate-sensitive (PerS, SR≥2) and -insensitive groups (PerI, SR<2). The probe-modified tyrosines found in the PerS group appeared to be enriched for annotated phosphotyrosine sites (HTP≥10 in PhosphoSitePlus, see FIGS. 6C and 18) and represented only a small fraction of all unique HHS-475- and HHS-482-modified tyrosines detected by chemical proteomics (˜3%, 67 sites). […]

Assay [2] has as its target T2, human fumarylacetoacetase (FAAA) (Homo sapiens, UniProt P16930).
T2 construct: made in house; host or cells: HEK293T, soluble proteome
The experiment in a line: Chemical proteomics analysis and gel-based screen of human FAAA with HHS SuTEx ligands. Format: binding. How it is done: FIGS. 44A-44C. Modification of human fumarylacetoacetase (FAAA) with HHS SuTEx ligands. FIG. 44A is a series of graphs showing the chemical proteomics analysis of human FAAA using an HHS SuTEx ligand, HHS0401 (25 μM) shown in FIG. 43. HHS0401 modifies the tyrosine at residue 244. FIG. 44B is an image of a gel-based chemical proteomic screen for human FAAA fragment ligands. Recombinant hFAAA-HEK293T soluble proteomes pretreated with indicated fragment (25 μM, 120 min) followed by labeling with HHS-475 (100 μM, 120 min).
(§1) In addition, SuTEx fragment EKT231 (see FIG. 46A) modifies EDC3 at tyrosine 475.

In the next assay the test system is DM93 and HEK293T cells. The experiment in a line: Proteome-wide profiling of sulfonyl imidazole analogs in live cells. The note with it: 100 μM, 2 hours, 37° C. In kind it is cell-based, human. How it is done:
A chemical proteomic treatment and analysis protocol was established to evaluate the structural-induced effect on the proteomic coverage of the sulfonyl imidazole analogs. […] Duke Melanoma 93 (DM93) and human embryonic kidney 293T (HEK293T) cells were treated with the probes (100 μM, 2 hours, 37° C.). The cells were harvested, washed and fractionated to expose the proteome. The cytosolic proteome subsequently underwent copper-catalyzed azide-alkyne cycloaddition (CuAAC) with a dethiobiotin PEG-3 azide tag. The tagged proteomes were digested with trypsin lys-C protease mixture, enriched by avidin affinity chromatography, eluted and analyzed by chromatography-tandem high-resolution mass spectrometry (LC-MS). The bioinformatic match of probe modified peptides was filtered with data confidence control criteria of ≥300 Byonic score, ≥3 log probability and ≤5 ppm mass accuracy (amino acid residue modifications of Y, K, N, Q, and W were processed at this point).

Another assay has as its target T3, purified DPP3 (Homo sapiens, UniProt Q9NY33).
T3 sequence (Q9NY33 1-737): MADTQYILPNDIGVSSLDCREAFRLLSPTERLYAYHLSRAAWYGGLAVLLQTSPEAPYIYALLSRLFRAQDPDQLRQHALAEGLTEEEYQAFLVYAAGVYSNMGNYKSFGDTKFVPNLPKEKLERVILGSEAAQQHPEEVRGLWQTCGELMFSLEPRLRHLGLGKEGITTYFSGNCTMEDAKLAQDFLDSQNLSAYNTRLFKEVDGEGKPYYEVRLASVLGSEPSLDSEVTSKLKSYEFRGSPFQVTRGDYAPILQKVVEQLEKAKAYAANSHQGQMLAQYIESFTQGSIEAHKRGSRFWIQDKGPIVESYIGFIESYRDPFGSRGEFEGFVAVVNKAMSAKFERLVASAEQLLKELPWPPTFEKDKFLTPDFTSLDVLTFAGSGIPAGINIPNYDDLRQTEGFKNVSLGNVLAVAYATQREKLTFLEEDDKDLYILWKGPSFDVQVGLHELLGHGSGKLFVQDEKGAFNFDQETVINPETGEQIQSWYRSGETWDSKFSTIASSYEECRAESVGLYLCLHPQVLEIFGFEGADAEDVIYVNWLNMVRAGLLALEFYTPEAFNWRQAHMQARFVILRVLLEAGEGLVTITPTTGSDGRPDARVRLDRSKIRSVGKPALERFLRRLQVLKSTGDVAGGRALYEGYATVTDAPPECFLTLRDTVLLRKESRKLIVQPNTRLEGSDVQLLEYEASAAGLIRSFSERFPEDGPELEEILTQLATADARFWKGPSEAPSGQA
In words: DPP3 biochemical substrate assay (Arg-Arg β-naphthylamide peptidase assay). The following applies: negative control with cyclopropyl-modified AG. How it is done: DPP3 Biochemical Substrate Assay
Substrate assays were performed using purified DPP3 protein diluted to 5 ng/μL in assay buffer. DPP3 samples (10 μl) were diluted to 85 μl with assay buffer and transferred to a black 96-well plate. Samples were treated with a 50× stock of SuTEx-fragment at indication concentration for 30 min at 37° C. A stock solution of DPP3 substrate (Arg-Arg β-naphthylamide trihydrochloride, 0.5 mM: Sigma-Aldrich. St, Louis, Missouri, United States of America) was diluted to 100 μM in assay buffer. Substrate solution (5 μl) was added to each sample. Samples were mixed briefly by shaking and reaction monitored in kinetic mode by measuring fluorescence at 450 nm for 10 min on a BMG Labtech CLARIOstar plate reader (BMG Labtech, Cary, North Carolina, United States of America).

In the next assay the test system is DM93 soluble proteomes. In words: Proteome-wide competitive chemical proteomics of SuTEx fragments vs HHS-482. The following applies: fragment 50 μM, 30 min, 37° C. Format: binding, human. How it is done:
Heavy and light proteomes (432 μl of each) were diluted to 2.3 mg ml^−1 in PBS and sample aliquots (432 μl) were treated with SuTEx fragment at the indicated concentrations (5 μl, 100× stock in DMSO), mixed gently and incubated for 30 min at 37° C. Samples were then treated with HHS-482 (5 μL, 5 mM stock in DMSO) for 30 min at 37° C. Probe-modified proteomes were conjugated to desthiobiotin-PEG3-azide followed by enrichment of probe-modified peptides for nano-electrospray ionization-LC-MS/MS analyses as previously described^57.
The chemical proteomic method for functional tyrosine profiling^72 was tailored to investigate AG/LG effects on SuTEx fragment reactivity in complex proteomes. In brief, isotopically light and heavy soluble proteomes from DM93 melanoma cells cultured by stable isotopic labeling by amino acids in cell culture (SILAC^80) media were used for quantitative liquid chromatography-mass spectrometry (LC-MS) studies. Light and heavy DM93 proteomes were treated with dimethyl sulfoxide (DMSO) vehicle or SuTEx fragment (50 μM, 30 min, 37° C.), respectively, followed by labeling with the tyrosine-reactive probe HHS-482 described hereinabove (50 μM, 30 min, 37° C.) and copper-catalyzed azide-alkyne cycloaddition (CuAAC) conjugation of a desthiobiotin-azide enrichment tag. Proteomes were digested with trypsin protease, HHS-482-modified peptides enriched by avidin chromatography and analyzed by high-resolution LC-MS/MS and bioinformatics as described hereinabove.
To evaluate substituent effects on proteome activity, reactivity profiles of each respective SuTEx fragment were compared across >1500 total distinct HHS-482-modified tyrosine sites from >650 detected proteins. Fragments were screened across independent biological replicates (n=2-3) and high-quality tyrosine site annotations were identified by detection in at least a single biological replicate from each fragment dataset, probe-specific enrichment (HHS-482 probe/DMSO SILAC ratio (SR)>5), and quality control confidence criteria of ≥300 Byonic score^31, […] protein false discovery rate (FDR), and ≤5 ppm mass accuracy in order to minimize the potential for false positives^72. SILAC ratios (SR) from competitive studies (Light-DMSO/Heavy-fragment) were used to identify fragment-competed tyrosine residues as sites showing >75% reduction in enrichment by HHS-482 compared with DMSO vehicle control (i.e. liganded tyrosines, SR>4). In total, 305 liganded tyrosines on 213 distinct proteins were identified, corresponding to ˜30% and ˜44% of total quantified tyrosines and proteins, respectively. […]

The target in assay [3] is human prostaglandin reductase 2 (PTGR2) (Homo sapiens, UniProt Q8N8N7). In words: Chemical proteomics analysis and gel-based screen of human PTGR2 with HHS SuTEx ligands. Format: binding.
human prostaglandin reductase 2 (PTGR2), sequence (Q8N8N7 whole entry): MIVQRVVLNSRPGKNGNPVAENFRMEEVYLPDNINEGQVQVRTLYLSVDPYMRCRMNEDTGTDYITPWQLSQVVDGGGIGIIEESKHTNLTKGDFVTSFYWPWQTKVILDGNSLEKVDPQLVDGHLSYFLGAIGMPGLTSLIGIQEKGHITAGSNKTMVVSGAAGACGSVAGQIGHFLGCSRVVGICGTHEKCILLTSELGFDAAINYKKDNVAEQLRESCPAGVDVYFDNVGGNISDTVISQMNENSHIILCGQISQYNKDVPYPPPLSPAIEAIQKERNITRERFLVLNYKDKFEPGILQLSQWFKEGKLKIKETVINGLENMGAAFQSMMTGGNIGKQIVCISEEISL
From the text: FIGS. 45A and 45B: Modification of human prostaglandin reductase 2 (PTGR2) with HHS SuTEx ligands. HHS0701 modifies the tyrosine at residue 100.
as §1

Entries after “also recorded” stand apart in the source; their conditions may differ.

T1 sequence (P09211 whole entry): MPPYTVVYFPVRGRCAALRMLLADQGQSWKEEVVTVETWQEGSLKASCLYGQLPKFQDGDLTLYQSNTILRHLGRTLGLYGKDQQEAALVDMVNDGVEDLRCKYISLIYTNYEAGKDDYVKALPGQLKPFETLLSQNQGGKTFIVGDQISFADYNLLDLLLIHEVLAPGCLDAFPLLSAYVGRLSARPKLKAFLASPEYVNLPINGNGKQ
T2 sequence (P16930 whole entry): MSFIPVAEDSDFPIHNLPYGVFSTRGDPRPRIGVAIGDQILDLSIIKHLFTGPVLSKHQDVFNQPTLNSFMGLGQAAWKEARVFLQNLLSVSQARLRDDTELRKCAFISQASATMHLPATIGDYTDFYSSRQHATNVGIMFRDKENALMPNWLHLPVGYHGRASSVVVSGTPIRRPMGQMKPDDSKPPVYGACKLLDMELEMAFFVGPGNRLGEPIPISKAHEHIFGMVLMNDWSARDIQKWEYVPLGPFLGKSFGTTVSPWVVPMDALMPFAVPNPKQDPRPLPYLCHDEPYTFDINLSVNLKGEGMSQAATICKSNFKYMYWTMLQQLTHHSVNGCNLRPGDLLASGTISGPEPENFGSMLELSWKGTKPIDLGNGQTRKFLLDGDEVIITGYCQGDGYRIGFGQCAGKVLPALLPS

With `O=S(=O)(C1CC1)n1cnc(-c2ccncc2)n1` [JWB191, 4-(1-(Cyclopropylsulfonyl)-1H-1,2,4-triazol-3-yl)pyridine], the “inhibitory activity against GSTP1” value in assay [1] is “lack of activity; also recorded: did not show inhibitory activity”.
With pervanadate, in the assay with A549 cells, the “SILAC ratio (SR, light PBS/heavy pervanadate) of SuTEx probe labeling at CTNND1 Y228” value came to 3.3; the “SILAC ratio (SR, light PBS/heavy pervanadate) of SuTEx probe labeling at PKM Y105” value amounted to 1.1; the “SILAC ratio (SR, light PBS/heavy pervanadate) of SuTEx probe labeling at STAT3 Y705” value is 2.3.
Consider `O=C(NCc1ccccc1)c1ccc(S(=O)(=O)n2cnnc2)cc1` [HHS0401], for which, in assay [2] (FIG. 44C), the “inhibition of FAAA, gel-based chemical proteomic analysis” value was “dose-dependent inhibition”. Further, the “tyrosine residue of FAAA modified” value in assay [2] (ligand 25 μM) was found to be 244.
In the case of `C#CCNC(=O)c1ccc(S(=O)(=O)n2cnc(C(F)(F)F)c2)cc1` [KY-Im-TFM, N-(prop-2-yn-1-yl)-4-((4-(trifluoromethyl)-1H-imidazol-1-yl)sulfonyl)benzamide], in the assay with DM93 and HEK293T cells, the Y/K specificity is 3.58; the “overall reactivity towards tyrosine and lysine residues (number of sites)” value amounted to 338.
For `COc1ccc(-c2ncn(S(=O)(=O)C3CC3)n2)cc1` [JWB131, 1-(Cyclopropylsulfonyl)-3-(4-methoxyphenyl)-1H-1,2,4-triazole], the “activity against DPP3 in substrate assay” value on purified DPP3 is “inactive”. Further, the “reactivity against the proteome” value with DM93 soluble proteomes was “largely unreactive”.
Turning to `O=C(c1ccc(S(=O)(=O)n2cnnc2)cc1)N1CCC(c2ccccc2)CC1` [HHS0701], the “inhibition of PTGR2, gel-based chemical proteomic screen” value in assay [3] (FIG. 45B) was “dose-dependent inhibition”. In assay [3] (ligand 25 μM), the “tyrosine residue of PTGR2 modified” value was found to be 100.
Consider `C#CCNC(=O)c1ccc(S(=O)(=O)n2ccnc2)cc1` [HHS-Im-01, 4-((1H-imidazol-1-yl)sulfonyl)-N-(prop-2-yn-1-yl)benzamide], for which, in the assay with DM93 and HEK293T cells, the Y/K specificity was 0.77; the “overall reactivity towards tyrosine and lysine residues (number of sites)” value came to 329.

The values above are taken from patent US12366579B2, “Sulfur-heterocycle exchange chemistry and uses thereof” (University of Virginia Patent Foundation, priority 2019, dated 2025).
